From patent US20250353827A1, “INDOLINE DERIVATIVES AS SEROTONERGIC AGENTS USEFUL FOR THE TREATMENT OF DISORDERS RELATED THERETO” (MINDSET PHARMA INC., priority 2022, published 2025)
Values joined by “and” are separate entries in the source; they are usually repeats but may differ in a detail not shown here. Equal values may be shown once.

Legend:
[1] = biological target: T1, human 5-HT2A (h5-HT2A) receptor (Homo sapiens, UniProt P28223); experiment: FLIPR assay, human 5-HT2A receptor under agonist mode; assay type: cell-based; conditions: 5-HT2A (FLIPR); for RFU@10 μM: RFU=Fmax−Fmin; for EC50: read-out: EC50
T1 construct: expressed in transfected cells; cultured under G418 and hygromycin B selection
Method: I. Assessment of the Effect of Exemplary Compounds of Formula I Targeting on Human 5-HT2A (h5-HT2A) Receptor Under Agonist Mode
• 1. Cells were cultured in cell culture medium (DMEM containing 10% FBS, 1×penicillin-streptomycin 300 μg/ml G418 and 100 μg/ml hygromycin B) at 37° C., 5% (v/v) CO2. • 2. One day before the assays, the cells were detached using TrypLE™ Express and cells were counted using cell counter. Only cells with >85% viability were used for the assay. • 3. 20000 cells/well were seeded in 30 μl/well culture medium to a 384-well cell plate and cells were incubated overnight at 37° C., 5% (v/v) CO2. • 4. On the assay day, 2×dye solution was prepared following the manual of the FLIPR® Calcium 6 Assay Kit: i. The dye was diluted with assay buffer (20 mM HEPES in 1× HBSS, PH7.4); ii. Probenecid was added to the final concentration of 5 mM; iii. Vortex vigorously for 1-2 minutes. • 5. Medium was removed from cell plate by flicking the cell plate on towel papers. • 6. 10 μl of assay buffer and 10 μl of 2×dye solution was added to each well of the cell plate. • 7. The cell plate was placed on plate shaker, the plate was agitated at 600 rpm for 2 minutes. The plate was incubated at 37° C. for 2 hours followed by additional 15-minute incubation at 25° C. • 8. 3×compound in assay buffer was prepared: a. Reference compounds were diluted to required concentration with DMSO. The compounds were added to a 384-well compound plate; b. Serial dilutions were performed; c. 10 mM test compounds were added to the compound plate, and 3-fold serial dilutions were performed. d. Transfer 60 nl/well of compounds from source plate to a 384-well compound plate (Corning, 3657) by using an Echo; e. Add 20 μl/well assay buffer to the compound plate; f. Mix the plate on plate shaker for 2 mins; • 9. The cell plate, compound plate and tips were put into FLIPR, 10 μl of 3× compound was transferred to the cell plate per well with FLIPR.
• i. The normalized fluorescence reading (RFU) was calculated as shown below, where Fmax and Fmin stand for maximum and minimum of calcium signal during defined time window: RFU=Fmax−Fmin. • ii. Calculate the percentage activation using following equation:
[formula] • Iii. Calculate EC50 by fitting % activation against log of compound concentrations with Hill equation using XLfit.
Exemplary compounds of Formula I were evaluated functionally using FLIPR assay for their effect on h5-HT2A receptor under agonist mode.

[2] = Liver microsomes stability, human; conditions: for Predicted hepatic CL: human liver microsomes; for Remaining Percentage / CLint scaled at 2 μM / half-life at 2 μM / microsomal CLint at 2 μM: human; for CLint scaled at 2 μM / half-life at 2 μM / microsomal CLint at 2 μM: pooled liver microsomes
Method: (§1) The objective of this study was to estimate in vitro metabolic stability of representative compounds of the application in pooled human and male mouse liver microsomes. The concentrations of parent compounds in reaction systems were evaluated by LC-MS/MS for estimating the stability in pooled human and male mouse liver microsomes. The in vitro intrinsic clearances of test compounds were determined as well.
(§2) A master solution in the “Incubation Plate” containing phosphate buffer, ultra-pure H2O, MgCl2 solution and liver microsomes was made according to Table 3. The mixture was pre-warmed at 37° C. water bath for 5 minutes.
(§3) 40 μL of 10 mM NADPH solution was added to each well. The final concentration of NADPH was 1 mM. The negative control samples were prepared by replacing NADPH with 40 μL of ultra-pure H2O. Samples were prepared in duplicate. Negative controls were prepared in singlet.
(§4) The reaction was started with the addition of 4 μL of 200 μM test compounds or control compounds to each master solution to get the final concentration of 2 μM. This study was performed in duplicate.
(§5) Aliquots of 50 μL were taken from the reaction solution at 0, 15, 30, 45 and 60 minutes. The reaction solutions were stopped by the addition of 4 volumes of cold methanol with IS (100 nM alprazolam, 200 nM imipramine, 200 nM labetalol and 2 μM ketoprofen). Samples were centrifuged at 3,220 g for 40 minutes. Aliquot of 90 μL of the supernatant was mixed with 90 μL of ultra-pure H2O and then was used for LC-MS/MS analysis.
(§6) LC/MS analysis was performed for all samples from this study using a Shimadzu liquid chromatograph separation system equipped with degasser DGU-20A5R; solvent delivery unit LC-30AD; system controller SIL-30AC; column oven CTO-30A; CTC Analytics HTC PAL System. Mass spectrometric analysis was performed using a Triple Quad™ 5500 instrument.
(§7) All calculations were carried out using Microsoft Excel. Peak areas were determined from extracted ion chromatograms. The slope value, k, was determined by linear regression of the natural logarithm of the remaining percentage of the parent drug vs. incubation time curve.
(§8) The in vitro half-life (in vitro t1/2) was determined from the slope value:
(§9) Conversion of the in vitro t1/2 (min) into the in vitro intrinsic clearance (in vitro CLint, in μL/min/mg proteins) was done using the following equation (mean of duplicate determinations): […]

[3] = Liver microsomes stability, mouse; conditions: for CLint scaled at 2 μM / half-life at 2 μM / microsomal CLint at 2 μM: male, microsomes; for CLint scaled at 2 μM / half-life at 2 μM / microsomal CLint at 2 μM / Remaining Percentage: mouse; for Predicted hepatic CL: mouse liver microsomes
Method: as §1, §2, §3, §4, §5, §6, §7, §8, §9

[4] = tested on: Male, C57BL/6J mice; experiment: Mouse head twitch; assay type: in vivo; conditions: for head twitches (mean): counted over 1 hr, male C57BL/6J mice
Method: The effect of different doses of representative compounds of Formula I were evaluated on head-twitch response (HTR) and other behavioural responses as behavior-based models of psychedelic activity.
Male, C57BL/6J mice (body weight range 20-30 g) were dosed with the appropriate dose of test article, and following a 1-minute pre-treatment time, placed in individual observation chambers. Animals were visually assessed for the incidence head twitches continuously over a 1 hr period. Head twitches were defined as a rapid jerk of the head which was not elicited by an external tactile stimulus (Come and Pickering, Psychopharmacologia, 1967, 11(1): 65-78). Each head twitch was individually counted by a trained observer, and the data was expressed as the mean±SEM of 6-10 mice per group. Mice were used in a single experiment only.
The head twitch response of exemplary compound II-1 (1-30 mg/kg SC) was compared to 5-MeO DMT and psilocybin (FIG. 1, Table 6).

[5] = Liver microsomes stability, rat; conditions: rat; for CLint scaled at 2 μM / Predicted hepatic CL / half-life at 2 μM / microsomal CLint at 2 μM: liver microsomes

T1 sequence (P28223 whole entry): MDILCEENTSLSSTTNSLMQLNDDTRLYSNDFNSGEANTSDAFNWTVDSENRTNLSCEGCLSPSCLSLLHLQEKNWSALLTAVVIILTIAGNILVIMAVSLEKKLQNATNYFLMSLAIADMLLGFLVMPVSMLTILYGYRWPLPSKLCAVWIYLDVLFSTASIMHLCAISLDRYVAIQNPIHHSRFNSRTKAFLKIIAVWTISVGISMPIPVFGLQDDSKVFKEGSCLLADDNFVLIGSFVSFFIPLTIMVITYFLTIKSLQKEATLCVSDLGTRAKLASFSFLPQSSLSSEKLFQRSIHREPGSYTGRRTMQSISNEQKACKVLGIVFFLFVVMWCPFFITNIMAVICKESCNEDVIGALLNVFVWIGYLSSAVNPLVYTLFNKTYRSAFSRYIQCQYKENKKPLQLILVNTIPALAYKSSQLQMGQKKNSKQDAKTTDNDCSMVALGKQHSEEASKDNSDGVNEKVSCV

## COc1ccc2c(c1)C(CCN(C)C)CN2 (stereo not shown) [II-1, 2-(5-Methoxyindolin-3-yl)-N,N-dimethylethan-1-amine]
[1]
  RFU@10 μM: 1813 and 1180
  EC50: 202 nM and 274 nM
[2]
  Predicted hepatic CL: 14.13 mL/min/kg
  CLint scaled at 2 μM: 44.5 mL/min/kg
  half-life at 2 μM: 39 min
  microsomal CLint at 2 μM: 35.5 µL/min/mg
[2]; With NADPH, 0 min
  Remaining Percentage: 100.00%
[2]; With NADPH, 30 min
  Remaining Percentage: 65.37%
[2]; With NADPH, 60 min
  Remaining Percentage: 34.47%
[2]; Without NADPH, 0 min
  Remaining Percentage: 100.00%
[2]; Without NADPH, 30 min
  Remaining Percentage: 89.91%
[2]; Without NADPH, 60 min
  Remaining Percentage: 83.49%
[3]
  CLint scaled at 2 μM: 368 mL/min/kg
  half-life at 2 μM: 16.5 min
  microsomal CLint at 2 μM: 84.2 µL/min/mg
  Predicted hepatic CL: 72.33 mL/min/kg
[3]; With NADPH, 0 min
  Remaining Percentage: 100.00%
[3]; With NADPH, 30 min
  Remaining Percentage: 31.98%
[3]; With NADPH, 60 min
  Remaining Percentage: 8.00%
[3]; Without NADPH, 0 min
  Remaining Percentage: 100.00%
[3]; Without NADPH, 30 min
  Remaining Percentage: 117.83%
[3]; Without NADPH, 60 min
  Remaining Percentage: 113.85%
[4]; 0.3 mg/kg SC
  head twitches (mean): 3.2
[4]; 1 mg/kg SC
  head twitches (mean): 3.8
[4]; 3 mg/kg SC
  head twitches (mean): 3.6
[4]; 10 mg/kg SC
  head twitches (mean): 2.3
[4]; 30 mg/kg SC, 2/5 mice
  mice with some 5-HT syndrome associated behaviours: 40%
[4]; 30 mg/kg SC
  head twitches (mean): 4.2
[4]; SC, dose range as in the sentence
  head twitch response (in words): only a modest head twitch response
[4]; SC, psilocybin 3 and 10 mg/kg, 5-MeO DMT 3-30 mg/kg, II-1 0.3-30 mg/kg
  other behavioural signs (locomotion, core body temperature, 5-HT syndrome) in words: No overt signs of hypolocomotion or 5-HT syndrome
[4]; at 30 mg/kg SC, mean±SEM
  peak head twitch response: 4.2±0.7 twitches
[5]; With NADPH, 0 min
  Remaining Percentage: 100.00%
[5]; With NADPH, 30 min
  Remaining Percentage: 20.42%
[5]; With NADPH, 60 min
  Remaining Percentage: 5.99%
[5]; Without NADPH, 0 min
  Remaining Percentage: 100.00%
[5]; Without NADPH, 30 min
  Remaining Percentage: 86.92%
[5]; Without NADPH, 60 min
  Remaining Percentage: 87.15%
[5]
  CLint scaled at 2 μM: 168 mL/min/kg
  Predicted hepatic CL: 41.56 mL/min/kg
  half-life at 2 μM: 14.8 min
  microsomal CLint at 2 μM: 93.8 µL/min/mg

## CN(C)CCC1CNc2ccccc21 (stereo not shown) [II-2, 2-(Indolin-3-yl)-N,N-dimethylethan-1-amine]
[1]
  RFU@10 μM: 544
  EC50: 1230 nM
[2]
  Predicted hepatic CL: 9.09 mL/min/kg
  CLint scaled at 2 μM: 16.2 mL/min/kg
  half-life at 2 μM: 107 min
  microsomal CLint at 2 μM: 12.9 µL/min/mg
[2]; With NADPH, 0 min
  Remaining Percentage: 100.00%
[2]; With NADPH, 30 min
  Remaining Percentage: 87.48%
[2]; With NADPH, 60 min
  Remaining Percentage: 67.85%
[2]; Without NADPH, 0 min
  Remaining Percentage: 100.00%
[2]; Without NADPH, 30 min
  Remaining Percentage: 100.69%
[2]; Without NADPH, 60 min
  Remaining Percentage: 86.47%
[3]
  CLint scaled at 2 μM: 165 mL/min/kg
  half-life at 2 μM: 36.7 min
  microsomal CLint at 2 μM: 37.7 µL/min/mg
  Predicted hepatic CL: 58.25 mL/min/kg
[3]; With NADPH, 0 min
  Remaining Percentage: 100.00%
[3]; With NADPH, 30 min
  Remaining Percentage: 57.37%
[3]; With NADPH, 60 min
  Remaining Percentage: 32.23%
[3]; Without NADPH, 0 min
  Remaining Percentage: 100.00%
[3]; Without NADPH, 30 min
  Remaining Percentage: 99.08%
[3]; Without NADPH, 60 min
  Remaining Percentage: 86.24%
[5]; With NADPH, 0 min
  Remaining Percentage: 100.00%
[5]; With NADPH, 30 min
  Remaining Percentage: 26.32%
[5]; With NADPH, 60 min
  Remaining Percentage: 10.29%
[5]; Without NADPH, 0 min
  Remaining Percentage: 100.00%
[5]; Without NADPH, 30 min
  Remaining Percentage: 92.41%
[5]; Without NADPH, 60 min
  Remaining Percentage: 83.54%
[5]
  CLint scaled at 2 μM: 136 mL/min/kg
  Predicted hepatic CL: 39.25 mL/min/kg
  half-life at 2 μM: 18.3 min
  microsomal CLint at 2 μM: 75.8 µL/min/mg
